Results published in US6518243B1, “Desleucyl glycopeptide antibiotics and methods of making same” (Trustees of Princeton University, priority 1999, dated 2003).

Columns and labels:
E. faceium (ATCC 49624) = assay: Zone of inhibition screen, 96 well agar array format;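 further: score 3 means fourfold and score 4 sixteenfold the reference zone size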; format: cell-based, E. faecium; conditions: zone of inhibition relative to 1 mg/ml stock solution of p-chlorobiphenylvancomycin
Summary of the method: (§1)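 Each compound was tested for antibacterial activity against a shared bacterial panel, with screening carried out on agar in a 96-well array.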

E. Faecalis CL 4877 = assay: MIC determination in BHI media, OD600; format: cell-based; conditions: BHI + 0.1% casamino acids, 18 hours at 37° C., ≧90% OD600 inhibition
Summary of the method: (§2)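 Log-phase bacteria were diluted to about 5×10^5 CFU/ml and exposed to test compounds serially diluted in DMSO. Following 18 hours at 37° C, growth was read by plate absorbance to assign the MIC.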

E. faecium ATCC 49624 = assay: MIC determination in BHI media, OD600; format: cell-based; conditions: BHI + 0.1% casamino acids, 18 hours at 37° C., ≧90% OD600 inhibition
Summary of the method: as §2

E. faecium CL 4931 = assay: MIC determination in BHI media, OD600; format: cell-based; conditions: BHI + 0.1% casamino acids, 18 hours at 37° C., ≧90% OD600 inhibition
Summary of the method: as §2

S aureus ATCC 29213 = assay: MIC determination in BHI media, OD600; format: cell-based; conditions: BHI + 0.1% casamino acids, 18 hours at 37° C., ≧90% OD600 inhibition
Summary of the method: as §2

S. Aureus ATCC 33591 = assay: MIC determination in BHI media, OD600; format: cell-based; conditions: BHI + 0.1% casamino acids, 18 hours at 37° C., ≧90% OD600 inhibition
Summary of the method: as §2

E. faecalis (CL 4877) = assay: Zone of inhibition screen, 96 well agar array format; format: cell-based; design: scale not given here; conditions: zone of inhibition relative to 1 mg/ml stock solution of p-chlorobiphenylvancomycin
Summary of the method: as §1

[1] = system: E. faecalis (ATCC 292121); assay: as above; format: cell-based; conditions: zone of inhibition relative to 1 mg/ml stock solution of p-chlorobiphenylvancomycin
Method: The antibacterial activity of each of the compounds against the bacterial strains E. faceium (ATCC 49624), S. epidermidis (ATCC 12228), S. aureus (ATCC 29213), E. faecalis (CL 4877) and E. faecalis (ATCC 292121) was tested. Each of the compounds was screened in a 96 will agar array format.

E. faecalis ATCC 29212 = assay: MIC determination in BHI media, OD600; format: cell-based; conditions: BHI + 0.1% casamino acids, 18 hours at 37° C., ≧90% OD600 inhibition
Summary of the method: as §2

S. aureus (ATCC 29213) = assay: Zone of inhibition screen, 96 well agar array format; format: cell-based; design: scale not given here; conditions: zone of inhibition relative to 1 mg/ml stock solution of p-chlorobiphenylvancomycin
Summary of the method: as §1

[2] = system: S. epidermidis (ATCC 12228); assay: as above; format: cell-based; design: scale not given here; conditions: zone of inhibition relative to 1 mg/ml stock solution of p-chlorobiphenylvancomycin
Summary of the method: as §1
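Wherever zone score, E. faecalis ATCC 29212 is given: score 3 means fourfold and score 4 sixteenfold the reference zone size.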

SMILES | zone score, E. faecium ATCC 49624 (E. faceium (ATCC 49624)) | MIC E. faecalis CL 4877 (E. Faecalis CL 4877) [µg/mL] | MIC E. faecium ATCC 49624 (E. faecium ATCC 49624) [µg/mL] | MIC E. faecium CL 4931 (E. faecium CL 4931) [µg/mL] | MIC S. aureus ATCC 29213 (S aureus ATCC 29213) [µg/mL] | MIC S. aureus ATCC 33591 (S. Aureus ATCC 33591) [µg/mL] | zone score, E. faecalis CL 4877 (E. faecalis (CL 4877)) | zone score, E. faecalis ATCC 29212 [1] | MIC E. faecalis ATCC 29212 (E. faecalis ATCC 29212) [µg/mL] | zone score, S. aureus ATCC 29213 (S. aureus (ATCC 29213)) | zone score, S. epidermidis ATCC 12228 [2]
C[C@H](N)C(=O)N[C@H]1C(=O)N[C@@H](CC(N)=O)C(=O)N[C@H]2C(=O)N[C@H]3C(=O)N[C@H](C(=O)N[C@@H](C(=O)O)c4cc(O)cc(O)c4-c4cc3ccc4O)[C@H](O)c3ccc(c(Cl)c3)Oc3cc2cc(c3O[C@@H]2O[C@H](CO)[C@@H](O)[C@H](O)[C@H]2O[C@@H]2C[C@@](C)(NCc3ccc(-c4ccc(Cl)cc4)cc3)[C@@H](O)[C@@H](C)O2)Oc2ccc(cc2Cl)[C@H]1O [Compound 1] | 2 | 25 | 0.78 | 25 | 0.78 | 0.78 |  |  |  |  | 
CNCC(=O)N[C@H]1C(=O)N[C@@H](CC(N)=O)C(=O)N[C@H]2C(=O)N[C@H]3C(=O)N[C@H](C(=O)N[C@@H](C(=O)O)c4cc(O)cc(O)c4-c4cc3ccc4O)[C@H](O)c3ccc(c(Cl)c3)Oc3cc2cc(c3O[C@@H]2O[C@H](CO)[C@@H](O)[C@H](O)[C@H]2O[C@@H]2C[C@@](C)(NCc3ccc(-c4ccc(Cl)cc4)cc3)[C@@H](O)[C@@H](C)O2)Oc2ccc(cc2Cl)[C@H]1O [Compound 8] |  |  |  |  |  |  | 2 | 2 |  |  | 
C[C@H]1O[C@H](O[C@H]2[C@H](Oc3c4cc5cc3Oc3ccc(cc3Cl)[C@@H](O)[C@@H](NC(=O)[C@H](N)COC(C)(C)C)C(=O)N[C@@H](CC(N)=O)C(=O)N[C@H]5C(=O)N[C@H]3C(=O)N[C@H](C(=O)N[C@@H](C(=O)O)c5cc(O)cc(O)c5-c5cc3ccc5O)[C@H](O)c3ccc(c(Cl)c3)O4)O[C@H](CO)[C@@H](O)[C@@H]2O)C[C@@](C)(NCc2ccc(-c3ccc(Cl)cc3)cc2)[C@H]1O [Compound 17] |  | 3.91 | 0.062 |  | 0.062 | 0.12 |  |  | 0.25 |  | 
C[C@H](OC(C)(C)C)[C@@H](N)C(=O)N[C@H]1C(=O)N[C@@H](CC(N)=O)C(=O)N[C@H]2C(=O)N[C@H]3C(=O)N[C@H](C(=O)N[C@@H](C(=O)O)c4cc(O)cc(O)c4-c4cc3ccc4O)[C@H](O)c3ccc(c(Cl)c3)Oc3cc2cc(c3O[C@@H]2O[C@H](CO)[C@@H](O)[C@H](O)[C@H]2O[C@@H]2C[C@@](C)(NCc3ccc(-c4ccc(Cl)cc4)cc3)[C@@H](O)[C@@H](C)O2)Oc2ccc(cc2Cl)[C@H]1O [Compound 18] | 2 | 25 | 0.25 | 25 | 0.78 | 0.78 |  |  |  | 2 | 
C[C@H]1O[C@H](O[C@H]2[C@H](Oc3c4cc5cc3Oc3ccc(cc3Cl)[C@@H](O)[C@@H](NC(=O)[C@H](N)Cc3c[nH]c6ccccc36)C(=O)N[C@@H](CC(N)=O)C(=O)N[C@H]5C(=O)N[C@H]3C(=O)N[C@H](C(=O)N[C@@H](C(=O)O)c5cc(O)cc(O)c5-c5cc3ccc5O)[C@H](O)c3ccc(c(Cl)c3)O4)O[C@H](CO)[C@@H](O)[C@@H]2O)C[C@@](C)(NCc2ccc(-c3ccc(Cl)cc3)cc2)[C@H]1O [Compound 25] | 2 |  | 0.25 |  | 0.25 | 0.25 | 2 | 2 | 0.39 | 2 | 
C[C@H]1O[C@H](O[C@H]2[C@H](Oc3c4cc5cc3Oc3ccc(cc3Cl)[C@@H](O)[C@@H](NC(=O)CN)C(=O)N[C@@H](CC(N)=O)C(=O)N[C@H]5C(=O)N[C@H]3C(=O)N[C@H](C(=O)N[C@@H](C(=O)O)c5cc(O)cc(O)c5-c5cc3ccc5O)[C@H](O)c3ccc(c(Cl)c3)O4)O[C@H](CO)[C@@H](O)[C@@H]2O)C[C@@](C)(NCc2ccc(-c3ccc(Cl)cc3)cc2)[C@H]1O [Compound 28] | 2 |  |  |  |  |  | 2 | 2 |  |  | 
C[C@H]1O[C@H](O[C@H]2[C@H](Oc3c4cc5cc3Oc3ccc(cc3Cl)[C@@H](O)[C@@H](NC(=O)[C@@H]3CC(OC(C)(C)C)CN3)C(=O)N[C@@H](CC(N)=O)C(=O)N[C@H]5C(=O)N[C@H]3C(=O)N[C@H](C(=O)N[C@@H](C(=O)O)c5cc(O)cc(O)c5-c5cc3ccc5O)[C@H](O)c3ccc(c(Cl)c3)O4)O[C@H](CO)[C@@H](O)[C@@H]2O)C[C@@](C)(NCc2ccc(-c3ccc(Cl)cc3)cc2)[C@H]1O (stereo partly shown) [Compound 30] | 2 | 25 | 0.78 | 25 |  |  |  |  |  |  | 
CC1OC(OC2C(Oc3c4cc5cc3Oc3ccc(cc3Cl)C(O)C3NC(=O)C(NC(=O)C5NC(=O)C(CC(N)=O)NC(=O)C(NC(=O)C(N)CCC(N)=O)C(O)c5ccc(c(Cl)c5)O4)c4ccc(O)c(c4)-c4c(O)cc(O)cc4C(C(=O)O)NC3=O)OC(CO)C(O)C2O)CC(C)(NCc2ccc(-c3ccc(Cl)cc3)cc2)C1O (stereo not shown) [Compound 57] | 2 |  |  |  |  |  |  | 2 |  |  | 
CC(O)C(N)C(=O)NC1C(=O)NC(CC(N)=O)C(=O)NC2C(=O)NC3C(=O)NC(C(=O)NC(C(=O)O)c4cc(O)cc(O)c4-c4cc3ccc4O)C(O)c3ccc(c(Cl)c3)Oc3cc2cc(c3OC2OC(CO)C(O)C(O)C2OC2CC(C)(NCc3ccc(-c4ccc(Cl)cc4)cc3)C(O)C(C)O2)Oc2ccc(cc2Cl)C1O (stereo not shown) [Compound 64] |  |  | 0.39 | 25 | 0.78 | 0.78 | 2 | 2 |  |  | 
CC1OC(OC2C(Oc3c4cc5cc3Oc3ccc(cc3Cl)C(O)C3NC(=O)C(NC(=O)C5NC(=O)C(CC(N)=O)NC(=O)C(NC(=O)C(N)CCCCNC(=O)CCCCC5SCC6NC(=O)NC65)C(O)c5ccc(c(Cl)c5)O4)c4ccc(O)c(c4)-c4c(O)cc(O)cc4C(C(=O)O)NC3=O)OC(CO)C(O)C2O)CC(C)(NCc2ccc(-c3ccc(Cl)cc3)cc2)C1O (stereo not shown) [Compound 75] | 2 | 25 | 0.39 | 25 |  |  | 2 | 2 |  |  | 2
CC1OC(OC2C(Oc3c4cc5cc3Oc3ccc(cc3Cl)C(O)C3NC(=O)C(NC(=O)C5NC(=O)C(CC(N)=O)NC(=O)C(NC(=O)C(N)CCCCNC=O)C(O)c5ccc(c(Cl)c5)O4)c4ccc(O)c(c4)-c4c(O)cc(O)cc4C(C(=O)O)NC3=O)OC(CO)C(O)C2O)CC(C)(NCc2ccc(-c3ccc(Cl)cc3)cc2)C1O (stereo not shown) [Compound 79] | 2 | 25 | 0.78 | 25 |  |  |  |  |  | 2 | 
CC1OC(OC2C(Oc3c4cc5cc3Oc3ccc(cc3Cl)C(O)C3NC(=O)C(NC(=O)C5NC(=O)C(CC(N)=O)NC(=O)C(NC(=O)C(N)CC[S+](C)[O-])C(O)c5ccc(c(Cl)c5)O4)c4ccc(O)c(c4)-c4c(O)cc(O)cc4C(C(=O)O)NC3=O)OC(CO)C(O)C2O)CC(C)(NCc2ccc(-c3ccc(Cl)cc3)cc2)C1O (stereo not shown) [Compound 81] | 2 | 25 | 0.78 | 25 | 0.78 |  |  |  |  |  | 2
CC1OC(OC2C(Oc3c4cc5cc3Oc3ccc(cc3Cl)C(O)C3NC(=O)C(NC(=O)C5NC(=O)C(CC(N)=O)NC(=O)C(N)C(O)c5ccc(c(Cl)c5)O4)c4ccc(O)c(c4)-c4c(O)cc(O)cc4C(C(=O)O)NC3=O)OC(CO)C(O)C2O)CC(C)(NCc2ccc(-c3ccc(Cl)cc3)cc2)C1O (stereo not shown) [Compound 522, Des-Lecyl Vancomycin, reference compound] |  | > 25 | > 25 | > 25 | > 25 | > 25 |  |  | > 25 |  | 
C[C@H]1O[C@H](O[C@H]2[C@H](Oc3c4cc5cc3Oc3ccc(cc3Cl)[C@@H](O)[C@@H](NC(=O)[C@H](N)Cc3cccnc3)C(=O)N[C@@H](CC(N)=O)C(=O)N[C@H]5C(=O)N[C@H]3C(=O)N[C@H](C(=O)N[C@@H](C(=O)O)c5cc(O)cc(O)c5-c5cc3ccc5O)[C@H](O)c3ccc(c(Cl)c3)O4)O[C@H](CO)[C@@H](O)[C@@H]2O)C[C@@](C)(NCc2ccc(-c3ccc(Cl)cc3)cc2)[C@H]1O [Compound 556] |  | 25 | 0.39 | 25 | 0.78 | 0.39 |  |  | 0.78 |  | 
